Measurements as given in ChEMBL document CHEMBL1201862, “PubChem BioAssay data set” (2004).
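Values below derive from 48-hour exposures of cells grown in 96-well plates, with endpoints linearly interpolated between the two concentrations bracketing the appropriate inhibition level. GI50 = concentration required for 50% inhibition of growth.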 Activity calls are given as the source filed them. Cut-off read from the data, not from the text of the source: active = GI50 up to about 1.1 µM and inactive = higher.

How the values were obtained:
Experiment in all cases: DTP human tumour cell line panel, 48 h
A549 = test system: A549
BT-549 = test system: BT-549
HCT-116 = test system: HCT-116
HL-60 = test system: HL-60
Hs-578T = test system: Hs-578T
MDA-MB-435 = test system: MDA-MB-435
MDA-N = test system: MDA-N
NCI-H226 = test system: NCI-H226
OVCAR-5 = test system: OVCAR-5
PC-3 = test system: PC-3
SF-268 = test system: SF-268
SK-MEL-28 = test system: SK-MEL-28
SK-MEL-2 = test system: SK-MEL-2
SK-MEL-5 = test system: SK-MEL-5
SR = test system: SR
T47D = test system: T47D

CN1c2ccc(O)c(O)c2-c2cc(O)cc3c2C1CCC3 (configuration not stated)
GI50 (A549): 29.9 µM (inactive)
GI50 (BT-549): 17.3 µM (inactive)
GI50 (HCT-116): 14.6 µM (inactive)
GI50 (HL-60): 14.6 µM (inactive)
GI50 (Hs-578T): 35.2 µM (inactive)
GI50 (MDA-MB-435): 15.6 µM (inactive)
GI50 (MDA-N): 16.9 µM (inactive)
GI50 (NCI-H226): 27.9 µM (inactive)
GI50 (OVCAR-5): 24.5 µM (inactive)
GI50 (PC-3): 19.2 µM (inactive)
GI50 (SF-268): 14.2 µM (inactive)
GI50 (SK-MEL-28): 20.8 µM (inactive)
GI50 (SK-MEL-2): 24 µM (inactive)
GI50 (SK-MEL-5): 15.7 µM (inactive)
GI50 (SR): 7 µM (inactive)
GI50 (T47D): 15.9 µM (inactive)

COC(=O)[C@@]12CC[C@]1(C(=O)OC)C1C(C)=CC(=O)O[C@@]12C (some centres not stated)
GI50 (A549): > 100 µM (inactive)
GI50 (BT-549): > 100 µM (inactive)
GI50 (HCT-116): > 100 µM (inactive)
GI50 (HL-60): > 100 µM (inactive)
GI50 (Hs-578T): > 100 µM (inactive)
GI50 (MDA-MB-435): > 100 µM (inactive)
GI50 (MDA-N): > 100 µM (inactive)
GI50 (NCI-H226): > 100 µM (inactive)
GI50 (OVCAR-5): > 100 µM (inactive)
GI50 (PC-3): > 100 µM (inactive)
GI50 (SF-268): > 100 µM (inactive)
GI50 (SK-MEL-28): > 100 µM (inactive)
GI50 (SK-MEL-5): > 100 µM (inactive)
GI50 (SR): > 100 µM (inactive)
GI50 (T47D): > 100 µM (inactive)

COc1ccc(C2NC(=S)Nc3c2c(=O)oc2c3ccc3ccccc32)cc1 (configuration not stated)
GI50 (A549): 52.1 µM (inactive)
GI50 (BT-549): 45.7 µM (inactive)
GI50 (HCT-116): 78.2 µM (inactive)
GI50 (HL-60): 92.3 µM (inactive)
GI50 (Hs-578T): 75.7 µM (inactive)
GI50 (MDA-MB-435): 86.3 µM (inactive)
GI50 (MDA-N): 76.9 µM (inactive)
GI50 (NCI-H226): 32.2 µM (inactive)
GI50 (OVCAR-5): > 100 µM (inactive)
GI50 (PC-3): 54.7 µM (inactive)
GI50 (SF-268): > 100 µM (inactive)
GI50 (SK-MEL-28): 52.5 µM (inactive)
GI50 (SK-MEL-2): 44.1 µM (inactive)
GI50 (SK-MEL-5): > 100 µM (inactive)
GI50 (SR): 48.4 µM (inactive)
GI50 (T47D): 50.6 µM (inactive)

COc1ccc(/C=N/NS(=O)(=O)c2ccc(/C=C3\NC(=O)N(C)C3=O)cc2)cc1
GI50 (A549): > 100 µM (inactive)
GI50 (BT-549): > 100 µM (inactive)
GI50 (HCT-116): > 100 µM (inactive)
GI50 (HL-60): 67 µM (inactive)
GI50 (Hs-578T): 30.3 µM (inactive)
GI50 (MDA-MB-435): > 100 µM (inactive)
GI50 (MDA-N): > 100 µM (inactive)
GI50 (NCI-H226): > 100 µM (inactive)
GI50 (OVCAR-5): > 100 µM (inactive)
GI50 (PC-3): 80.2 µM (inactive)
GI50 (SF-268): 37.8 µM (inactive)
GI50 (SK-MEL-28): > 100 µM (inactive)
GI50 (SK-MEL-2): > 100 µM (inactive)
GI50 (SK-MEL-5): > 100 µM (inactive)
GI50 (SR): > 100 µM (inactive)
GI50 (T47D): > 100 µM (inactive)

O=C1NC(=O)C(C(CC(=O)c2ccc([N+](=O)[O-])cc2)c2ccccc2)C(=O)N1 (configuration not stated)
GI50 (A549): 97.3 µM (inactive)
GI50 (BT-549): > 100 µM (inactive)
GI50 (HCT-116): 14.8 µM (inactive)
GI50 (HL-60): > 100 µM (inactive)
GI50 (Hs-578T): 10.9 µM (inactive)
GI50 (MDA-MB-435): 49.8 µM (inactive)
GI50 (MDA-N): 27.2 µM (inactive)
GI50 (NCI-H226): > 100 µM (inactive)
GI50 (OVCAR-5): > 100 µM (inactive)
GI50 (PC-3): 55.8 µM (inactive)
GI50 (SF-268): 19.9 µM (inactive)
GI50 (SK-MEL-28): > 100 µM (inactive)
GI50 (SK-MEL-2): > 100 µM (inactive)
GI50 (SK-MEL-5): 41.6 µM (inactive)
GI50 (SR): 40 µM (inactive)
GI50 (T47D): 20.5 µM (inactive)

C=CCOC1OC(CO[Si](C)(C)C(C)(C)C)C(OCc2ccccc2)C(OCc2ccccc2)C1OCc1ccccc1 (configuration not stated)
GI50 (A549): 23.6 µM (inactive)
GI50 (BT-549): 65 µM (inactive)
GI50 (HCT-116): 23 µM (inactive)
GI50 (HL-60): > 100 µM (inactive)
GI50 (Hs-578T): 45.2 µM (inactive)
GI50 (MDA-MB-435): > 100 µM (inactive)
GI50 (MDA-N): > 100 µM (inactive)
GI50 (NCI-H226): > 100 µM (inactive)
GI50 (OVCAR-5): > 100 µM (inactive)
GI50 (PC-3): 58.9 µM (inactive)
GI50 (SF-268): 40.5 µM (inactive)
GI50 (SK-MEL-28): > 100 µM (inactive)
GI50 (SK-MEL-2): 47.8 µM (inactive)
GI50 (SK-MEL-5): 29.5 µM (inactive)
GI50 (SR): > 100 µM (inactive)
GI50 (T47D): 35.6 µM (inactive)

Cc1cc(S(=O)(=O)Nc2n[nH]c(-c3ccc(Cl)cc3)n2)c(SSc2cc(Cl)c(C)cc2S(=O)(=O)Nc2n[nH]c(-c3ccc(Cl)cc3)n2)cc1Cl
GI50 (A549): 41.5 µM (inactive)
GI50 (BT-549): 40.6 µM (inactive)
GI50 (HCT-116): 28.5 µM (inactive)
GI50 (HL-60): 23.2 µM (inactive)
GI50 (Hs-578T): 28.2 µM (inactive)
GI50 (MDA-MB-435): 31.7 µM (inactive)
GI50 (MDA-N): 41.3 µM (inactive)
GI50 (NCI-H226): 22.5 µM (inactive)
GI50 (OVCAR-5): 22 µM (inactive)
GI50 (PC-3): 29.2 µM (inactive)
GI50 (SF-268): 34.1 µM (inactive)
GI50 (SK-MEL-28): 33 µM (inactive)
GI50 (SK-MEL-5): 33.2 µM (inactive)
GI50 (SR): 25.5 µM (inactive)
GI50 (T47D): 14.6 µM (inactive)

O=[As](O)(O)c1ccc(/N=N/c2ccc([As](=O)(O)O)cc2)cc1
GI50 (A549): > 100 µM (inactive)
GI50 (BT-549): > 100 µM (inactive)
GI50 (HCT-116): > 100 µM (inactive)
GI50 (HL-60): > 100 µM (inactive)
GI50 (Hs-578T): > 100 µM (inactive)
GI50 (MDA-MB-435): > 100 µM (inactive)
GI50 (MDA-N): > 100 µM (inactive)
GI50 (NCI-H226): > 100 µM (inactive)
GI50 (OVCAR-5): > 100 µM (inactive)
GI50 (PC-3): > 100 µM (inactive)
GI50 (SF-268): > 100 µM (inactive)
GI50 (SK-MEL-28): > 100 µM (inactive)
GI50 (SK-MEL-2): > 100 µM (inactive)
GI50 (SK-MEL-5): > 100 µM (inactive)
GI50 (SR): > 100 µM (inactive)
GI50 (T47D): > 100 µM (inactive)

CCCC(=O)Nc1cc(/C=C/C(=O)N2CC(CCl)c3ccc(N)cc32)n(C)c1 (configuration not stated)
GI50 (A549): 0.0294 µM (active)
GI50 (BT-549): 0.193 µM (active)
GI50 (HCT-116): 0.129 µM (active)
GI50 (HL-60): 0.206 µM (active)
GI50 (Hs-578T): 0.277 µM (active)
GI50 (MDA-MB-435): 0.256 µM (active)
GI50 (MDA-N): 0.219 µM (active)
GI50 (NCI-H226): 0.282 µM (active)
GI50 (OVCAR-5): 0.375 µM (active)
GI50 (PC-3): 0.215 µM (active)
GI50 (SF-268): 0.259 µM (active)
GI50 (SK-MEL-28): 0.292 µM (active)
GI50 (SK-MEL-2): 0.212 µM (active)
GI50 (SK-MEL-5): 0.11 µM (active)
GI50 (SR): 0.0242 µM (active)
GI50 (T47D): 0.158 µM (active)
